{"source": "patent US6517866B1", "about": "(Pfizer Inc., priority 1997, dated 2003)", "key": {"[1]": {"test": "Example 13: screening of excipients that inhibit precipitation or gelation of sertraline lactate when chloride is present", "assay_type": "physicochemical", "details": "sertraline lactate with excipient"}, "[2]": {"test": "Example 15: sertraline dissolution rate from packed powder in gastric buffer", "assay_type": "physicochemical", "experimental": "The sample tubes were spun at 14K G for 5 minutes in a microcentrifuge to pack the powder. 150 μl gastric buffer was added to the packed powder and the samples were gently agitated,then spun at 14K G in a microcentrifuge for 2 minutes. The samples were then removed from the microcentrifuge and allowed to stand undisturbed until the solution was removed."}, "[3]": {"test": "Mechanical properties of compacts (compression, indentation hardness, moduli, tensile strength)", "assay_type": "physicochemical", "details": "for Compression Stress / Solid Fraction: Compact Preparation; for Dynamic Indentation Hard. / Reduced Elastic Modulus: Dynamic Indentation; for Tensile Strength: Tensile Fracture", "experimental": "These indices are derived from critical measurements made to assess the mechanical response of the compacts (measurements are not made during the process of compaction).\nThe most critical material properties that influence powder compaction are its ductility, elasticity and tensile strength. Ductility is determined by pendulum impact and is a dynamic indentation test to determine the hardness of the compact. The hardness of the compound is inversely related to its ductility.\nElasticity values of greater than 8 GPa are high, values between 1-8 GPa are moderate and values less than 1 GPa are low.\nTensile strength is measured by transverse compression of the compacts until it results in tensile fracture. It is desirable to have high tensile strength. Tensile strength of greater than 2 MPa is high, values in the range of 0.8-2.0 Mpa are moderate and values less than 0.8 MPa are low.\nHiestand's ITP is comprised of the following characteristics: brittle fracture index (herein termed BFI), best case bonding index (herein termed bBI), worst case bonding index (herein termed wBI) and strain index (herein termed SI).\nThe BFI is a measure of the propensity of a compact to break or fragment under stress from existing cracks and holes in the compact. BFI is used by the skilled person to indicate the propensity of a tablet to break or fragment during processing (i.e. failure) such as during ejection from a tablet press or during film coating.\nBonding index is an estimate of the capacity of a compact to retain interparticulate bonds during elastic recovery. […] The estimate of plastic deformation is used in calculating the bonding index. The estimation of bonding index is important since decompression is a major step in the manufacture of tablets. The worst case bonding index (wBI) and best case bonding index (bBI) assess the ability of the interparticulate bonds that have been formed during compression to survive the release of strain energy during compression. Under conditions of high speed manufacture of tablets wBI is more applicable than bBI. Bonding index values of greater than or equal 2 are excellent; values between 0.8-1.9 are good; values between 0.3-0.7 are marginal and values less than 0.3 are poor.\nThe strain index is a measure of the elastic recovery of the compact. It can also be stated to be a measure of be extent of elastic recovery during the unloading phase."}, "[4]": {"test": "Example 10: solubility of sertraline hydrochloride in organic acid solutions", "details": "water (no acid excipient), thermodynamic from solid"}, "[5]": {"test": "Example 1: plasma sertraline pharmacokinetics, 200 mg bolus vs 15 hr divided dosing", "assay_type": "in vivo", "details": "male, human, oral", "experimental": "(§1) In a double-blind, randomized, placebo-controlled parallel group study, healthy male human subjects were divided into three groups. […] The tablets were administered with 50 ml water. […] Group B also received two placebo tablets at the fist dosing time. Group C, referred to as the “placebo group”, received placebo tablets and placebo solutions at the appropriate corresponding time points. All subjects were dosed after an overnight fast.\nTmax is the time at which Cmax is achieved."}, "[6]": {"system": "healthy male human subjects", "test": "Example 1: side effect visual analogue scales and emesis", "assay_type": "in vivo", "details": "15 hr divided dose regimen (15 subjects)", "experimental": "as §1\nPrior to dosing and to each blood sampling time, each subject filled out a questionnaire, which consisted of a series of “Visual Analogue Scales” in which the subject was required to rate, on a scale of 0-10, the severity of certain potential side effects. The subjects were instructed that “0” indicated an absent effect and “10” indicated the worst possible effect.\nAnalysis of side effect visual-analogue-scale data was carried out as follows. […] The non-gastrointestinal side effects dizziness and tremor were also evaluated."}, "[7]": {"test": "Example 2: plasma sertraline pharmacokinetics, 200 mg bolus vs 7 hr divided dosing", "assay_type": "in vivo", "details": "male, human, oral, mean", "experimental": "(§2) In a double-blind, randomized, placebo controlled parallel group study, healthy male human subjects were divided into three groups. […] The tablets were administered with 50 ml water. Group A also received a 50 ml placebo solution every hr for 7 hr. The placebo solution contained lactose and menthol. […] Group B also received two placebo tablets at the fist dosing time. Group C (n=15) received placebo tablets and placebo solutions at the appropriate time points. All subjects were dosed after an overnight fast."}, "[8]": {"system": "healthy male human subjects", "test": "Example 2: side effect visual analogue scales and emesis", "assay_type": "in vivo", "details": "200 mg bolus dose group (n=14)", "experimental": "as §2\nFor three side effects evaluated at 30 time points, a total of 4,500 individual visual-analogue-scale evaluations were obtained."}, "[9]": {"system": "healthy male human subjects", "details": "Study I", "experimental": "In a subset of a larger double-blind, randomized, placebo-controlled parallel group study, healthy male human subjects were divided into two groups (Study I). […] The tablets were administered with 50 ml water. Group B received two placebo tablets. All subjects were dosed after an overnight fast.\nThe subjects were instructed that “0” indicated an absent effect and “10” indicated the worst possible effect. The subjects were instructed to interpolate between 0 and 10 for moderate side effects.\nA total of 30 subjects completed Study I: 15 each in Groups A and B. For each side effect evaluated at 30 time points, a total of 900 individual visual-analogue-scale evaluations were obtained."}, "[10]": {"system": "healthy male human subjects", "test": "Example 6 Study II: emesis, regurgitation and PK/PD plots"}}, "note": "“And” between values parts separate entries of the source, which are not always exact repeats. Equal values may be shown once. Where a name gives a salt, the structure may show the parent alone."}
{"molecule": "O=C1O[C@H]([C@@H](O)CO)C(O)=C1O", "note": "[Ascorbic acid]", "values": [{"measurement": "Observation After NaCl Addition", "setting": "[1]; NaCl 100 mM", "result": "precipitate"}]}
{"molecule": "CCCCCCCCCCCCCCCC(=O)OC[C@H](O)[C@H]1OC(=O)C(O)=C1O", "note": "[Ascorbyl palmitate]", "values": [{"measurement": "Sertraline Dissolution Rate", "setting": "[2]; excipient 6.8, no acid, lactose 74.2, lactate 19 wt %", "result": 4.3, "unit": "mg/ml-min"}]}
{"molecule": "N[C@@H](Cc1c[nH]cn1)C(=O)O", "note": "[Histidine]", "values": [{"measurement": "Final Sertraline Concentration", "setting": "[1]; NaCl 150 mM", "result": 110, "unit": "mg/mL"}, {"measurement": "Observation After NaCl Addition", "setting": "[1]; NaCl 150 mM", "result": "slight precipitate"}]}
{"molecule": "CCCCCCCCCCCCCCCCCC(=O)OCC(O)CO", "note": "(stereo not shown) [Imwitor ® 191, Glyceryl Monostearate]", "values": [{"measurement": "Sertraline Dissolution Rate", "setting": "[2]; excipient 5.0, ascorbic 49.5, lactose 12.5, CaCO3 1.0, lactate 14 wt %", "result": 8.0, "unit": "mg/ml-min"}]}
{"molecule": "CCCCCCCCCCCC(=O)OCC(O)CO", "note": "(stereo not shown) [Imwitor ® 312, Glyceryl Monolaurate]", "values": [{"measurement": "Sertraline Dissolution Rate", "setting": "[2]; excipient 5.0, ascorbic 49.5, lactose 12.5, CaCO3 5, lactate 14 wt %", "result": 20.9, "unit": "mg/ml-min"}, {"measurement": "Sertraline Dissolution Rate", "setting": "[2]; excipient 6.8, aspartic 74.2, lactate 19 wt %", "result": 5.3, "unit": "mg/ml-min"}]}
{"molecule": "CCCCCCCC/C=C\\CCCCCCCC(=O)OCC(O)CO", "note": "(stereo not shown) [Myrerol ® (18-99), Glyceryl Monooleate]", "values": [{"measurement": "Sertraline Dissolution Rate", "setting": "[2]; excipient 5.0, ascorbic 49.5, lactose 12.5, lactate 14 wt %", "result": 6.4, "unit": "mg/ml-min"}]}
{"molecule": "CN[C@H]1CC[C@@H](c2ccc(Cl)c(Cl)c2)c2ccccc21.C[C@H](O)C(=O)O", "note": "[Sertraline L-lactate]", "values": [{"measurement": "tensile strength (in words)", "setting": "[3]", "result": "very high"}, {"measurement": "Compression Stress", "setting": "[3]", "result": "52.8 (0.7) Mpa"}, {"measurement": "Solid Fraction", "setting": "[3]", "result": 0.862}, {"measurement": "Dynamic Indentation Hard.", "setting": "[3]", "result": "81.6 (1.6) Mpa"}, {"measurement": "Reduced Elastic Modulus", "setting": "[3]", "result": "7.4 (0.6) GPa"}, {"measurement": "Elastic Modulus", "setting": "[3]; Quasistatic Indentation", "result": "2.0 (0.2) Gpa"}, {"measurement": "Quasistatic Indentation Hard.", "setting": "[3]; Quasistatic Indentation", "result": "31.1 (1.4) Mpa"}, {"measurement": "Shear Modulus", "setting": "[3]; Quasistatic Indentation", "result": "113.9 (4.6) Mpa"}, {"measurement": "Tensile Strength", "setting": "[3]", "result": "0.56 (0.02) Mpa"}, {"measurement": "Sertraline Dissolution Rate", "setting": "[2]; no candidate excipient, ascorbic 51.0, lactose 20, lactate 14 wt %", "result": 3.5, "unit": "mg/ml-min"}, {"measurement": "Sertraline Dissolution Rate", "setting": "[2]; sertraline lactate 100 wt %, no excipient", "result": 0.9, "unit": "mg/ml-min"}]}
{"molecule": "CN[C@H]1CC[C@@H](c2ccc(Cl)c(Cl)c2)c2ccccc21", "note": "[Sertraline hydrochloride]", "values": [{"measurement": "solubility", "setting": "[4]", "result": 25, "unit": "mg/mL"}]}
{"molecule": "CN[C@H]1CC[C@@H](c2ccc(Cl)c(Cl)c2)c2ccccc21", "note": "[Sertraline]", "values": [{"measurement": "Cmax", "setting": "[5]", "result": 32, "unit": "ng/mL"}, {"measurement": "Tmax", "setting": "[5]", "result": 16, "unit": "h"}, {"measurement": "emetic episodes", "setting": "[6]", "result": "no emetic episodes"}, {"measurement": "Tmax", "setting": "[7]; 25 mg per hr for 7 hr", "result": 10.4, "unit": "h"}, {"measurement": "Cmax", "setting": "[7]; 25 mg solution per hr for 7 hr (eight doses, 200 mg)", "result": 46, "unit": "ng/mL"}, {"measurement": "emetic events", "setting": "[8]", "result": 4}, {"measurement": "PK/PD plot of average nausea score vs plasma sertraline concentration (FIG. 6)", "setting": "[9]; 200 mg bolus dose", "result": "clockwise hysteresis"}, {"measurement": "diarrhea score vs plasma sertraline concentration curve", "setting": "[9]; 200 mg bolus dose", "result": "clockwise hysteresis"}, {"measurement": "time of maximum diarrhea score", "setting": "[9]; post-dose", "result": 3, "unit": "h"}, {"measurement": "subjects who exhibited regurgitation", "setting": "[10]; 200 mg dose group", "result": "four"}, {"measurement": "subjects with emesis", "setting": "[10]; 200 mg dose group", "result": "Four"}, {"measurement": "time of emesis in individual subjects", "setting": "[10]; 200 mg dose group", "result": "2.6 h and 2.8 h and 3.8 h"}, {"measurement": "individual PK/PD plots for regurgitation", "setting": "[10]; the four subjects with regurgitation", "result": "clockwise hysteresis"}]}
{"molecule": "Sertraline acetate", "values": [{"measurement": "elastic modulus (in words)", "setting": "[3]", "result": "relatively low"}, {"measurement": "Compression Stress", "setting": "[3]", "result": "36.7 (2.5) Mpa"}, {"measurement": "Solid Fraction", "setting": "[3]", "result": 0.831}, {"measurement": "Dynamic Indentation Hard.", "setting": "[3]", "result": "60.0 (0.4) Mpa"}, {"measurement": "Reduced Elastic Modulus", "setting": "[3]", "result": "5.1 (0.5) GPa"}, {"measurement": "Quasistatic Indentation Hard.", "setting": "[3]; Quasistatic Indentation", "result": "25.1 (1.3) Mpa"}, {"measurement": "Shear Modulus", "setting": "[3]; Quasistatic Indentation", "result": "99.9 (19.1) Mpa"}, {"measurement": "Tensile Strength", "setting": "[3]", "result": "0.52 (0.03) Mpa"}, {"measurement": "ductility (in words)", "setting": "[3]; from dynamic indentation hardness", "result": "high (dynamic indentation hardness values below 100 Mpa are high)"}]}
{"molecule": "Span ® 60", "values": [{"measurement": "Sertraline Dissolution Rate", "setting": "[2]; Span 60 5.0, ascorbic 51.0, lactose 15, lactate 14 wt %", "result": 9.5, "unit": "mg/ml-min"}]}
